Laboratory results as given in ChEMBL document CHEMBL4043153, “Lead selection of antiparasitic compounds from a focused library of benzenesulfonyl derivatives of heterocycles” (Bioorg Med Chem Lett, 2017).
Activity calls are given as the source filed them. No cut-off for these calls is given here.

Columns and labels:
Trypanosoma cruzi [1] = experiment: Antiparasitic activity against Trypanosoma cruzi Tulahuen C4 intracellular amastigotes infected in rat L6 cells; type: functional, cell-based
L6 [2] = experiment: Cytotoxicity against rat L6 cells; type: cell-based
[3] = Selectivity index, ratio of IC50 for rat L6 cells to IC50 for Leishmania donovani MHOM-ET-67/L82 axenic amastigotes; type: toxicity; settings: read-out: Ratio IC50
Leishmania donovani [4] = experiment: Antiparasitic activity against Leishmania donovani MHOM-ET-67/L82 axenic amastigotes; type: functional
[5] = Selectivity index, ratio of IC50 for rat L6 cells to IC50 for intraerythrocytic form of chloroquine/pyrimethamine-resistant Plasmodium falciparum K1 infected in human RBC; type: toxicity; settings: read-out: Ratio IC50
Plasmodium falciparum [6] = experiment: Antiparasitic activity against intraerythrocytic form of chloroquine/pyrimethamine-resistant Plasmodium falciparum K1; type: functional
[7] = Selectivity index, ratio of IC50 for rat L6 cells to IC50 for Trypanosoma cruzi Tulahuen C4 intracellular amastigotes infected in rat L6 cells; type: toxicity, cell-based; settings: read-out: Ratio IC50
Leishmania donovani [8] = experiment: Antiparasitic activity against Leishmania donovani MHOM-ET-67/L82 axenic amastigotes assessed as growth inhibition at 0.8 ug/ml after 72 hrs by resazurin dye-based fluorometric analysis relative to control; type: functional; settings: MHOM-ET-67/L82, 72 h, read-out: GI
L6 [9] = experiment: Cytotoxicity against rat L6 cells assessed as cell viability after 72 hrs by Alamar blue assay; type: cell-based; settings: L6, 72 h
Leishmania donovani [10] = experiment: Antiparasitic activity against Leishmania donovani MHOM-ET-67/L82 axenic amastigotes assessed as growth inhibition at 4.8 ug/ml after 72 hrs by resazurin dye-based fluorometric analysis relative to control; type: functional; settings: MHOM-ET-67/L82, 72 h, read-out: GI
[11] = test system: Trypanosoma brucei rhodesiense; experiment: Antiparasitic activity against Trypanosoma brucei rhodesiense STIB 900 trypomastigote bloodstream form assessed as growth inhibition at 0.8 ug/ml after 72 hrs by resazurin dye-based fluorometric analysis relative to control; type: functional; settings: STIB 900, 72 h, read-out: GI
Trypanosoma cruzi [12] = experiment: Antiparasitic activity against Trypanosoma cruzi Tulahuen C4 intracellular amastigotes infected in rat L6 cells assessed as growth inhibition at 4.8 ug/ml after 96 hrs by CPRG/Nonidet reagent based photometric analysis relative to control; type: functional; settings: Tulahuen C4, L6, 96 h, read-out: GI
Plasmodium falciparum [13] = experiment: (§1) Antiparasitic activity against intraerythrocytic form of chloroquine/pyrimethamine-resistant Plasmodium falciparum K1 infected in human RBC assessed as growth inhibition at 4.8 ug/ml preincubated for 48 hrs followed by [3H]-hypoxanthine addition measured after 24 hrs by liquid scintillation counting analysis relative to control; type: functional; settings: read-out: GI
Trypanosoma cruzi [14] = experiment: Antiparasitic activity against Trypanosoma cruzi Tulahuen C4 intracellular amastigotes infected in rat L6 cells assessed as growth inhibition at 0.8 ug/ml after 96 hrs by CPRG/Nonidet reagent based photometric analysis relative to control; type: functional; settings: Tulahuen C4, L6, 96 h, read-out: GI
[15] = test system: Trypanosoma brucei rhodesiense; experiment: Antiparasitic activity against Trypanosoma brucei rhodesiense STIB 900 trypomastigote bloodstream form assessed as growth inhibition at 4.8 ug/ml after 72 hrs by resazurin dye-based fluorometric analysis relative to control; type: functional; settings: STIB 900, 72 h, read-out: GI
Leishmania donovani [16] = experiment: Antiparasitic activity against Leishmania donovani MHOM-ET-67/L82 axenic amastigotes after 72 hrs by Alamar blue assay; type: functional; settings: MHOM-ET-67/L82, 72 h
Plasmodium falciparum [17] = experiment: as §1, with “0.8” for “4.8”; type: functional; settings: read-out: GI
Plasmodium falciparum [18] = experiment: Antiparasitic activity against intraerythrocytic form of chloroquine/pyrimethamine-resistant Plasmodium falciparum K1 infected in human RBC preincubated for 48 hrs followed by [3H]-hypoxanthine addition measured after 24 hrs by liquid scintillation counting analysis; type: functional
Trypanosoma cruzi [19] = experiment: Antiparasitic activity against Trypanosoma cruzi Tulahuen C4 intracellular amastigotes infected in rat L6 cells after 96 hrs by CPRG/Nonidet reagent based photometric analysis; type: functional, cell-based; settings: Tulahuen C4, L6, 96 h

Structure (SMILES) | IC50 (Trypanosoma cruzi [1]) | IC50 (L6 [2]) | selectivity ratio [3] | IC50 (Leishmania donovani [4]) | selectivity ratio [5] | IC50 (Plasmodium falciparum [6]) | selectivity ratio [7] | inhibition of growth at 0.8 µg/mL (Leishmania donovani [8]) | IC50 (L6 [9]) | inhibition of growth at 4.8 µg/mL (Leishmania donovani [10]) | inhibition of growth at 0.8 µg/mL [11] | inhibition of growth at 4.8 µg/mL (Trypanosoma cruzi [12]) | inhibition of growth at 4.8 µg/mL (Plasmodium falciparum [13]) | inhibition of growth at 0.8 µg/mL (Trypanosoma cruzi [14]) | inhibition of growth at 4.8 µg/mL [15] | IC50 (Leishmania donovani [16]) | inhibition of growth at 0.8 µg/mL (Plasmodium falciparum [17]) | IC50 (Plasmodium falciparum [18]) | IC50 (Trypanosoma cruzi [19]) | Activity (Plasmodium falciparum [18])
O=S(=O)(c1ccc(Br)cc1)N1CCCc2ccccc21 | 13.8 µM | 7.36 µM | 0.34 | 21.4 µM | 1.11 | 6.65 µM | 0.53 | – | – | – | – | – | – | – | – | – | – | – | – | –
Cc1cc(C)c(C)c(S(=O)(=O)N2CCCc3ccccc32)c1C | – | – | 7.53 | – | – | – | – | 94.2% | 2.71 µM | 100% | 2.7% | 60.3% | 56.5% | 15.5% | 3.7% | 0.36 µM | 3.1% | – | – | –
CCCCCCCCCCCCCCCCOP(=O)([O-])OCC[N+](C)(C)C [MILTEFOSINE] | – | – | – | – | – | – | – | 60.1% | – | 93.3% | – | – | – | – | – | 0.25 µM | – | – | – | –
CC1Cc2ccccc2N1S(=O)(=O)c1ccc(C(C)(C)C)cc1 (stereo not drawn) | – | – | 7.95 | – | 8.1 | – | 1.74 | 53.3% | 12.2 µM | 100% | 0% | 100% | 99.9% | 7.7% | 6.4% | 1.53 µM | 52.8% | 1.5 µM | 6.98 µM | –
CC1CCc2ccccc2N1S(=O)(=O)c1ccc(C(C)(C)C)cc1 (stereo not drawn) | – | – | 3.15 | – | 4.57 | – | 1.12 | 62% | 6.81 µM | 100% | 8.2% | 100% | 100% | 28% | 0% | 2.16 µM | 79.9% | 1.5 µM | 6.06 µM | –
O=[N+]([O-])c1ccc(S(=O)(=O)N2CCCc3ccccc32)cc1 | 11.4 µM | 248 µM | – | > 271 µM | 29.9 | 8.31 µM | 21.7 | – | – | – | – | – | – | – | – | – | – | – | – | –
Cc1cc(C)c(C)c(S(=O)(=O)N2CCc3ccccc3C2)c1C | – | – | 4.8 | – | – | – | – | 63.3% | 3.6 µM | 100% | 2% | 23.1% | 18.8% | 1.8% | 1.7% | 0.76 µM | 4.5% | – | – | –
CC1Cc2ccccc2N1S(=O)(=O)c1ccc([N+](=O)[O-])cc1 (stereo not drawn) | – | – | – | – | – | – | 24.8 | 41.7% | 69.4 µM | 79.5% | 6.9% | 94.4% | 72.6% | 19.4% | 68.2% | – | 18% | – | 2.8 µM | Active
O=[N+]([O-])c1ccc(S(=O)(=O)N2CCc3ccccc32)cc1 | – | – | – | – | – | – | 7.9 | 37.6% | 9.1 µM | 100% | 27.4% | 100% | 69.7% | 34.7% | 98% | – | 0% | – | 1.15 µM | Active
Cc1cc(C)c(C)c(S(=O)(=O)N2c3ccccc3CC2C)c1C (stereo not drawn) | – | – | 28.8 | – | – | – | – | 77.2% | 6.62 µM | 100% | 0% | 75.2% | 76.7% | 0% | 0% | 0.23 µM | 5.5% | – | – | –
Cc1cc(C)c(C)c(S(=O)(=O)N2CCc3ccccc32)c1C | – | – | 17.2 | – | – | – | – | 61.3% | 12.6 µM | 100% | 5.5% | 31.4% | 41.8% | 10.3% | 5.7% | 0.73 µM | 3.3% | – | – | –
Cc1cc(C)c(C)c(S(=O)(=O)N2c3ccccc3CCC2C)c1C (stereo not drawn) | – | – | 20 | – | – | – | – | 73.1% | 12.4 µM | 100% | 0% | 69.3% | 78% | 9.7% | 0% | 0.62 µM | 6.7% | – | – | –
O=S(=O)(c1ccc(Cl)cc1)N1CCCc2ccccc21 | 16 µM | 20.5 µM | 1.09 | 18.9 µM | 2.43 | 8.43 µM | 1.28 | – | – | – | – | – | – | – | – | – | – | – | – | –
Cc1cc(C)c(C)c(S(=O)(=O)n2ccc3ccccc32)c1C | – | – | 13.4 | – | – | – | – | 76.4% | 8.97 µM | 100% | 3.1% | 24.7% | 41.4% | 0.2% | 2.7% | 0.64 µM | 3.2% | – | – | –
